{
  "source": "paper PMC6261507",
  "about": "(ACS applied nano materials, 2018)",
  "origin": "cited, not measured here",
  "tested_on": "integrin αvβ3",
  "data": [
    {"substance": "Arg-Gly-Asp [RGD, arginine-glycine-aspartic acid]", "values": [
      {"measurement": "affinity towards integrin αvβ3", "value": "nanomolar affinity"}
    ]}
  ]
}
